According to the CheMixHub ionic liquid set:

Assay: xn = mol fraction of the nth substance listed

O=C([O-])C1=NN(c2ccc(S(=O)(=O)[O-])cc2)C(=O)C1N=Nc1ccc(S(=O)(=O)[O-])cc1.[Na+].[Na+].[Na+] (configuration not stated) + C[N+](C)(C)Cc1ccccc1.[Cl-] + O
electrical conductivity [S/m], 101.3 kPa, frequency 0.001 MHz
Conditions	298.15 K	308.15 K	318.15 K
x1 = 0.0001802, x2 = 1.802e-05	0.132	0.158	0.197
x1 = 0.0001803, x2 = 5.405e-05	0.142	0.177	0.213
x1 = 0.0001803, x2 = 9.008e-05	0.168	0.187	0.228
x1 = 0.0004504, x2 = 1.801e-05	0.231	0.276	0.355
x1 = 0.0004505, x2 = 5.403e-05	0.254	0.317	0.388
x1 = 0.0004507, x2 = 9.005e-05	0.303	0.331	0.413
x1 = 0.0007204, x2 = 1.801e-05	0.331	0.392	0.498
x1 = 0.0007206, x2 = 5.402e-05	0.359	0.447	0.535
x1 = 0.0007209, x2 = 9.003e-05	0.419	0.477	0.558
x1 = 0.0009903, x2 = 1.8e-05	0.421	0.512	0.641
x1 = 0.0009906, x2 = 5.4e-05	0.463	0.588	0.677
x1 = 0.0009909, x2 = 9e-05	0.57	0.614	0.723
x1 = 0.00126, x2 = 1.8e-05	0.519	0.638	0.777
x1 = 0.00126, x2 = 5.399e-05	0.583	0.716	0.826
x1 = 0.001261, x2 = 8.998e-05	0.684	0.739	0.863
x1 = 0.00153, x2 = 1.799e-05	0.641	0.753	0.915
x1 = 0.00153, x2 = 5.397e-05	0.705	0.841	0.972
x1 = 0.001531, x2 = 8.995e-05	0.812	0.88	1.01

viscosity [mPa·s], 101.3 kPa
Conditions	298.15 K	308.15 K	318.15 K
x1 = 0.0001802, x2 = 1.802e-05	0.905	0.747	0.629
x1 = 0.0001803, x2 = 5.405e-05	0.923	0.769	0.646
x1 = 0.0001803, x2 = 9.008e-05	0.941	0.789	0.666
x1 = 0.0004504, x2 = 1.801e-05	0.923	0.764	0.644
x1 = 0.0004505, x2 = 5.403e-05	0.944	0.788	0.664
x1 = 0.0004507, x2 = 9.005e-05	0.962	0.809	0.685
x1 = 0.0007204, x2 = 1.801e-05	0.938	0.778	0.658
x1 = 0.0007206, x2 = 5.402e-05	0.962	0.803	0.679
x1 = 0.0007209, x2 = 9.003e-05	0.983	0.826	0.701
x1 = 0.0009903, x2 = 1.8e-05	0.952	0.791	0.67
x1 = 0.0009906, x2 = 5.4e-05	0.977	0.818	0.693
x1 = 0.0009909, x2 = 9e-05	1	0.842	0.717
x1 = 0.00126, x2 = 1.8e-05	0.964	0.803	0.681
x1 = 0.00126, x2 = 5.399e-05	0.992	0.832	0.707
x1 = 0.001261, x2 = 8.998e-05	1.015	0.858	0.731
x1 = 0.00153, x2 = 1.799e-05	0.977	0.815	0.693
x1 = 0.00153, x2 = 5.397e-05	1.007	0.847	0.72
x1 = 0.001531, x2 = 8.995e-05	1.032	0.873	0.746

CO + CCCC[n+]1ccn(C)c1.O=S(=O)([N-]S(=O)(=O)C(F)(F)F)C(F)(F)F
Conditions	viscosity [mPa·s]
298 K, 100 kPa, x2 = 0	0.534

CCCCCCCCCC(=O)[O-].CCCCCCCCCCCCCC[P+](CCCCCC)(CCCCCC)CCCCCC + CCCC(=O)O + O
298 K, 100 kPa
Conditions	viscosity [mPa·s]
x2 = 0, x3 = 0.8754	96
x2 = 0.02766, x3 = 0.8266	95
x2 = 0.04982, x3 = 0.8036	97
x2 = 0.3259, x3 = 0.4715	100
x2 = 0.4065, x3 = 0.3936	96
x2 = 0.4564, x3 = 0.3488	91
x2 = 0.4978, x3 = 0.3385	78

CO/N=C(\C(=O)N[C@@H]1C(=O)N2C(C(=O)[O-])=C(CSc3nc(=O)c(=O)[n-]n3C)CS[C@H]12)c1csc(N)n1.[Na+].[Na+] + CCCCCCCC[n+]1ccc(C)cc1.[Br-] + O
viscosity [mPa·s], 100 kPa
Conditions	x1 = 0.0003495, x2 = 0	x1 = 0.0008732, x2 = 0	x1 = 0.001391, x2 = 0	x1 = 0.002502, x2 = 0	x1 = 0.00312, x2 = 0	x1 = 0.003888, x2 = 0	x1 = 0.004767, x2 = 0	x1 = 0.005484, x2 = 0
288.15 K	1.196	1.273	1.365	1.604	1.745	1.964	2.205	2.45
293.15 K	1.053	1.12	1.2	1.399	1.527	1.701	1.918	2.122
298.15 K	0.935	0.994	1.062	1.231	1.348	1.495	1.674	1.858
303.15 K	0.829	0.885	0.945	1.1	1.195	1.323	1.48	1.638
308.15 K	0.744	0.794	0.849	0.982	1.07	1.184	1.322	1.455

CCCCCCCC[N+](CCCCCCCC)(CCCCCCCC)CCCCCCCC.[Br-] + CCCCCCCC(=O)O
Conditions	electrical conductivity [S/m]
298.1 K, 100 kPa, x1 = 0.333	4.5e-06

CC[n+]1ccn(C)c1.F[B-](F)(F)F + C1COCCO1
100 kPa
Conditions	viscosity [mPa·s]
293.15 K, x2 = 0	50.5
298.15 K, x2 = 0.2149	26.8
303.15 K, x2 = 0	34.5
303.15 K, x2 = 0.1664	25.1
303.15 K, x2 = 0.2149	22.7
303.15 K, x2 = 0.5453	9.3
313.15 K, x2 = 0.2149	16.9
323.15 K, x2 = 0	18.6
323.15 K, x2 = 0.5077	6.59
323.15 K, x2 = 0.5453	5.93
333.15 K, x2 = 0.3591	7.8
333.15 K, x2 = 0.5077	5.42
353.15 K, x2 = 0.5453	3.52

CCS(=O)(=O)[O-].[NH4+] + CC(=O)[O-].CC[n+]1ccn(C)c1
101 kPa
Conditions	electrical conductivity [S/m]	viscosity [mPa·s]
313.15 K, x1 = 0.1701	0.38	112.1
318.15 K, x1 = 0.05	0.649	51.8
323.15 K, x1 = 0.0999	0.669	50.7
323.15 K, x1 = 0.1701	0.588	65.1

CO + CC[n+]1ccn(C)c1.N#C[S-]
100 kPa, x2 = 0
Conditions	viscosity [mPa·s]
298.15 K	0.54
318.15 K	0.43

CCCCCCCC[N+](CCCCCCCC)(CCCCCCCC)CCCCCCCC.[Br-] + CCCCCCC(=O)O
Conditions	electrical conductivity [S/m]
298.1 K, 100 kPa, x1 = 0.333	4.5e-06

CC[n+]1ccn(C)c1.COP(=O)([O-])OC + CCO
Conditions	viscosity [mPa·s]
293.15 K, 100 kPa, x1 = 0.7006	121.4
298.15 K, 100 kPa, x1 = 0.5013	37.58
298.15 K, 100 kPa, x1 = 0.7006	95.5
298.15 K, 100 kPa, x1 = 0.8011	141.3
298.15 K, 101 kPa, x2 = 0.398	68.8
298.15 K, 101 kPa, x2 = 0.598	23.29
303.15 K, 100 kPa, x1 = 0.3007	10.67
303.15 K, 100 kPa, x1 = 0.5994	48.5
303.15 K, 101 kPa, x2 = 0.398	55.24
308.15 K, 100 kPa, x1 = 1	134.2
308.15 K, 101 kPa, x2 = 0.798	4.904
313.15 K, 100 kPa, x1 = 0.3007	8.34
313.15 K, 100 kPa, x1 = 0.5994	31.82
313.15 K, 100 kPa, x1 = 1	102.6
318.15 K, 100 kPa, x1 = 0.3007	7.45
318.15 K, 101 kPa, x2 = 0.398	31.25
318.15 K, 101 kPa, x2 = 0.598	12.92
323.15 K, 100 kPa, x1 = 0.5013	15.7
323.15 K, 100 kPa, x1 = 0.8011	38.59
328.15 K, 100 kPa, x1 = 0.7006	25.53
328.15 K, 101 kPa, x2 = 0.199	38.21
333.15 K, 100 kPa, x1 = 0.1004	1.71
333.15 K, 100 kPa, x1 = 0.7006	21.5
333.15 K, 100 kPa, x1 = 1	41.05
338.15 K, 100 kPa, x1 = 0.8988	26.44

CCCCCCCC[N+](CCCCCCCC)(CCCCCCCC)CCCCCCCC.[Br-] + CCCCCCCCCC(=O)O
Conditions	electrical conductivity [S/m]	viscosity [mPa·s]
293 K, 100 kPa, x1 = 0.3333	–	910
298 K, 100 kPa, x1 = 0.3333	–	650
298.1 K, 100 kPa, x1 = 0.333	4.5e-06	–
303 K, 100 kPa, x1 = 0.3333	–	470
303.15 K, 101 kPa, x2 = 0.6667	–	469
313 K, 100 kPa, x1 = 0.3333	–	260
318.15 K, 100 kPa, x1 = 0.333	–	208
323.15 K, 101 kPa, x2 = 0.6667	–	174
333 K, 100 kPa, x1 = 0.3333	–	98
353.15 K, 101 kPa, x2 = 0.6667	–	56

CCCC[n+]1cccc(C)c1.N#C[N-]C#N + O
298.15 K, 101 kPa
Conditions	electrical conductivity [S/m]
x1 = 0.0001676	0.072
x1 = 0.0003333	0.132
x1 = 0.0004971	0.18
x1 = 0.0007203	0.265
x1 = 0.0009901	0.347
x1 = 0.001245	0.42
x1 = 0.001513	0.502
x1 = 0.001757	0.558
x1 = 0.002014	0.629
x1 = 0.002115	0.655
x1 = 0.002344	0.698
x1 = 0.002438	0.725
x1 = 0.002706	0.785
x1 = 0.002941	0.824
x1 = 0.00295	0.83
x1 = 0.00329	0.889
x1 = 0.003543	0.944

CO + CCCCCCCCn1cc[n+](C)c1.[Cl-]
Conditions	viscosity [mPa·s]
313.15 K, 101 kPa, x1 = 1	0.444

CO + C[N+](C)(C)CCO.NCC(=O)[O-]
100 kPa, x2 = 0
Conditions	viscosity [mPa·s]
298.15 K	0.58
303.15 K	0.55
308.15 K	0.51
313.15 K	0.47
318.15 K	0.44
323.15 K	0.41

CO + CC[n+]1ccn(C)c1.F[B-](F)(F)F
101 kPa, x2 = 0
Conditions	viscosity [mPa·s]
303.15 K	0.504
313.15 K	0.442
323.15 K	0.39
333.15 K	0.344

CO + CC[n+]1ccn(C)c1.O=S(=O)([N-]S(=O)(=O)C(F)(F)F)C(F)(F)F
100 kPa, x1 = 1
Conditions	viscosity [mPa·s]
298.15 K	0.55
308.15 K	0.48
318.15 K	0.43
